The source of these data is ChEMBL document CHEMBL3351456, “Synthesis and antiviral activities of 3-deaza-3-fluoroaristeromycin and its 5' analogues” (Bioorg Med Chem, 2014).

Data set [1] in a line: Inhibition of rabbit erythrocyte SAHase using S-adenosyl-L-homocysteine as substrate assessed as L-homocysteine formation incubated for 5 mins prior to substrate addition measured after 1 hr. Further details: species or system Oryctolagus cuniculus.
The nature of data set [2]: Cytotoxicity against human MRC5 cells. It counts as cell-based.
For the next data set, the system named is Tacaribe virus. The experiment in a line: Antiviral activity against Tacaribe virus infected in African green monkey Vero 76 cells. In kind it is functional, organism-based. The settings on record: Mammarenavirus tacaribeense.
The nature of data set [3]: Selectivity index, ratio of CC50 for African green monkey Vero E6 cells to IC50 for Monkeypox virus. In kind it is functional.
A further data set has as its system Monkeypox virus. Description: Antiviral activity against Monkeypox virus infected in African green monkey Vero E6 cells. It counts as functional, organism-based.
The subject of another data set is Measles morbillivirus. The experiment in a line: Antiviral activity against Measles virus infected in human MRC5 cells. In kind it is functional, organism-based.
In another data set the test system is Pichinde virus. Description: Antiviral activity against Pichinde virus infected in African green monkey Vero 76 cells. In kind it is functional, organism-based.
The test system of another data set is Human betaherpesvirus 5. The experiment in a line: Antiviral activity against human cytomegalovirus infected in HFF cells. It counts as functional, organism-based. The settings on record: Human betaherpesvirus 5, HFF.
The test system of another data set is Human papillomavirus. The experiment in a line: Antiviral activity against Human papillomavirus infected in HEK293 cells. In kind it is functional, organism-based.
A short description of data set [4]: Cytotoxicity against HFF cells. The following applies: human. In kind it is cell-based.
A short description of data set [5]: Cytotoxicity against African green monkey Vero cells. It counts as cell-based. The following applies: chlorocebus sabaeus.
The nature of data set [6]: Selectivity index, ratio of CC50 for human MRC5 cells to IC50 for Measles virus. It counts as functional.
In a further data set the test system is Vaccinia virus. Description: Antiviral activity against Vaccinia virus infected in HFF cells. In kind it is functional, organism-based. The settings on record: Orthopoxvirus vaccinia.
Data set [7] in a line: Selectivity index, ratio of CC50 for HEK293 cells to IC50 for Human papillomavirus. In kind it is functional.
The nature of data set [8]: Cytotoxicity against African green monkey Vero 76 cells. In kind it is cell-based. The settings on record: chlorocebus sabaeus.
Data set [9] can be described thus: Cytotoxicity against HEK293 cells. It counts as cell-based. The settings on record: human.
The next data set deals with Rift Valley fever virus. The experiment in a line: Antiviral activity against Rift Valley fever virus infected in African green monkey Vero 76 cells. In kind it is functional, organism-based.
Data set [10] is described as follows: Selectivity index, ratio of CC50 for HFF cells to IC50 for Vaccinia virus. In kind it is functional.
Data set [11] in a line: Cytotoxicity against African green monkey Vero E6 cells. It counts as cell-based. The settings on record: chlorocebus sabaeus.
Data set [12] is described as follows: Selectivity index, ratio of CC50 for African green monkey Vero cells to IC50 for Tacaribe virus. In kind it is functional.
A short description of data set [13]: Selectivity index, ratio of CC50 for African green monkey Vero 76 cells to IC50 for Rift Valley fever virus. It counts as functional.
The nature of data set [14]: Selectivity index, ratio of CC50 for HFF cells to IC50 for human cytomegalovirus. It counts as functional.
The nature of data set [15]: Selectivity index, ratio of CC50 for African green monkey Vero cells to IC50 for Pichinde virus. It counts as functional.
The next data set relates to Hepatitis B virus. The experiment in a line: Antiviral activity against HBV. In kind it is functional, organism-based.

In general, IC50 refers to the concentration at which inhibition is half-maximal. For orientation: CC50 means the concentration at which the toxic effect on the cells reaches its halfway point. The EC50 is the midpoint of the concentration-response curve.

For the compound `Nc1nccc2c1ncn2[C@@H]1C=C(CO)[C@@H](O)[C@H]1O`, the IC50 in data set [1] came to 9.3 nM.
As for `Nc1ncc(F)c2c1ncn2[C@@H]1C[C@H](O)[C@@H](O)[C@H]1O`, the CC50 in data set [2] is > 100 µM; in data set [4], > 300 µM; in data set [5] it was > 300 µM; in data set [8] it was > 300 µM; in data set [9], > 100 µM; in [11], > 100 µM. Further, the IC50 in the data set with Tacaribe virus is > 300 µM; in data set [1] it was 5.8 nM; in the data set with Monkeypox virus, < 320 nM; in the data set with Measles morbillivirus, < 320 nM; in the data set on Pichinde virus, > 300 µM; in the data set on Human betaherpesvirus 5, > 300 µM. In addition, the results for the IC50 with Human papillomavirus, in the data set on Vaccinia virus and in the data set with Rift Valley fever virus were 23.9 µM, 142 µM and > 300 µM, respectively. Also, the “Ratio CC50/IC50” value is reported as >313 in data set [3], >313 in [6], >4 in data set [7] and >2 in [10].
As to `Nc1ncc(F)c2c1ncn2[C@@H]1C[C@H](CO)[C@@H](O)[C@H]1O`, the CC50 is > 100 µM in data set [2]; > 178 µM in data set [4]; 159 µM in data set [5]; > 300 µM in data set [8]; > 100 µM in data set [9]; > 100 µM in [11]. In addition, the “Ratio CC50/IC50” value in data set [12] is reported as 11; in data set [13], >6.3; in data set [3], >313; in [14] it was <3; in data set [15] it was 7; in data set [6], >313. Besides, the “Ratio CC50/IC50” value in data set [10] is recorded as >6. The IC50 in the data set with Tacaribe virus is 14 µM; in data set [1], 29 nM; in the data set with Monkeypox virus, < 320 nM; with Measles morbillivirus it was < 320 nM; in the data set on Pichinde virus, 24 µM; in the data set with Human betaherpesvirus 5, > 60 µM. Also, the IC50 in the data set with Human papillomavirus is > 100 µM; with Vaccinia virus, 48 µM; with Rift Valley fever virus, 56 µM.
In the case of `Nc1ncc(F)c2c1ncn2[C@@H]1C[C@H](CCO)[C@@H](O)[C@H]1O`, the CC50 in data set [2] was > 100 µM; in data set [4], > 264 µM; in data set [5], 128 µM; in data set [8], > 300 µM; in data set [9] it was > 100 µM; in data set [11], > 100 µM. For the same compound, the “Ratio CC50/IC50” value in data set [12] is 20; in [13], >10; in [3], >313; in [14] it was 177; in [15], 5.7; in [6], >313. In addition, in data set [10], the “Ratio CC50/IC50” value is >5. In addition, the IC50 in the data set on Tacaribe virus is 6.4 µM; in data set [1], 9 nM; with Monkeypox virus, < 320 nM; in the data set on Measles morbillivirus, < 320 nM; in the data set with Pichinde virus it was 30 µM; in the data set with Human betaherpesvirus 5, 1.49 µM. Further, the IC50 is > 100 µM in the data set with Human papillomavirus, 55.2 µM in the data set with Vaccinia virus and 34 µM in the data set on Rift Valley fever virus.
`Nc1ncc(F)c2c1ncn2[C@@H]1O[C@H](CO)[C@@H](O)[C@H]1O` came in with an EC50 with Hepatitis B virus of 9.2 µM.
